Among the test systems are SK-MEL-28 melanoma; SF-268 CNS; RPMI-8226 leukemia; MALME-3M melanoma; SK-MEL-5 melanoma; HL-60(TB) leukemia; CCRF-CEM leukemia; SN12C renal; BT-549 breast; U251 CNS.
Holding throughout (test): NCI tumour cell line growth inhibition, 48 h

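Test compounds were applied to cells in 96-well plates for 48 hours at 5 doses. GI50: concentration for 50% inhibition of growth. TGI denotes the concentration required for complete inhibition of growth.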

As to `COc1ccc(OC)c(C[P+](c2ccccc2)(c2ccccc2)c2ccccc2)c1`, the TGI in the assay with SK-MEL-28 melanoma was 18.8 µM; in the assay on SF-268 CNS, > 100 µM; in the assay with RPMI-8226 leukemia it was 6.39 µM; in the assay with MALME-3M melanoma, 23.3 µM; with SK-MEL-5 melanoma, 3.32 µM; with HL-60(TB) leukemia, 3.29 µM. Moreover, the values for the TGI with CCRF-CEM leukemia, with SN12C renal and with BT-549 breast were > 26.8 µM, > 100 µM and 29.1 µM, respectively.
For the compound `C=CC(OC(C)=O)c1ccc(OC(C)=O)cc1` (centres undefined), the TGI was 5.65 µM with U251 CNS; 28.6 µM with SK-MEL-28 melanoma; 10.7 µM in the assay on SF-268 CNS; 5.92 µM with RPMI-8226 leukemia; 11.2 µM in the assay on MALME-3M melanoma; 28.7 µM with SK-MEL-5 melanoma. Further, the figures for the TGI with HL-60(TB) leukemia and with BT-549 breast were 18.6 µM and 23.9 µM, respectively.
Turning to `COC(=O)[C@](C)(Cc1ccccc1)NC(=O)[C@@H](C)N1[C@@H](c2ccccc2)COC1(C)C`, the TGI in the assay with U251 CNS, in the assay on SK-MEL-28 melanoma, with SF-268 CNS, in the assay with RPMI-8226 leukemia, in the assay on MALME-3M melanoma and in the assay with SK-MEL-5 melanoma was > 100 µM each time. Also, the TGI with HL-60(TB) leukemia, with CCRF-CEM leukemia and with BT-549 breast was > 100 µM each time.
With `CC(C)(C)C(=O)N1CCN(C=O)C1=S`, the TGI in the assay with U251 CNS, in the assay on SK-MEL-28 melanoma, in the assay with SF-268 CNS, with RPMI-8226 leukemia, in the assay with MALME-3M melanoma and in the assay on HL-60(TB) leukemia was > 100 µM throughout. Also, the figures for the TGI in the assay on CCRF-CEM leukemia, in the assay with SN12C renal and in the assay on BT-549 breast were 97.6 µM, > 100 µM and > 100 µM, respectively.
On to `CC1(C)C=[N+]([O-])C(C)(C)N1O`, for which the TGI in the assay with U251 CNS, in the assay with SF-268 CNS, in the assay with RPMI-8226 leukemia, in the assay with MALME-3M melanoma, in the assay on HL-60(TB) leukemia and in the assay on CCRF-CEM leukemia was > 10 µM in each case. Also, the TGI with SN12C renal and in the assay on BT-549 breast was > 10 µM each time.
In the case of `CCOC(=O)CCC(NC(=O)OCc1ccccc1)C(=O)NC(CCC(=O)OCC)C(=O)NC(CCC(=O)OCC)C(=O)NNC(=O)OC(C)(C)C` (centres undefined), the TGI with U251 CNS, in the assay on SK-MEL-28 melanoma, with RPMI-8226 leukemia, with MALME-3M melanoma, with SK-MEL-5 melanoma and with HL-60(TB) leukemia was > 100 µM each time. In addition, the TGI with CCRF-CEM leukemia, in the assay on SN12C renal and in the assay with BT-549 breast was > 100 µM each time.
For the compound `COc1cccc(NC(=O)CC(=O)N2N=C(C)C(N=Nc3ccc(C(=O)O)cc3)C2=O)c1` (centres undefined), the TGI with SK-MEL-28 melanoma, in the assay on SF-268 CNS, with RPMI-8226 leukemia, in the assay on MALME-3M melanoma, in the assay on SK-MEL-5 melanoma and with HL-60(TB) leukemia was > 100 µM throughout. Further, the TGI in the assay with CCRF-CEM leukemia, in the assay with SN12C renal and in the assay on BT-549 breast was > 100 µM in each case.
`CCOC(=O)c1c(N)sc2c1C(C(=O)OCC)CCC2` (centres undefined): the TGI in the assay with U251 CNS, in the assay on SK-MEL-28 melanoma, with RPMI-8226 leukemia, in the assay with MALME-3M melanoma, with SK-MEL-5 melanoma and with HL-60(TB) leukemia was > 100 µM in each case. Also, the TGI in the assay on CCRF-CEM leukemia, in the assay with SN12C renal and in the assay with BT-549 breast was > 100 µM throughout.
For `COc1cc2oc(-c3ccc4c(c3)OCO4)c(OC)c(=O)c2c(O)c1OC`, the TGI with U251 CNS, in the assay on SK-MEL-28 melanoma, in the assay with SF-268 CNS, with MALME-3M melanoma, with SK-MEL-5 melanoma and in the assay with HL-60(TB) leukemia was > 50 µM each time. Moreover, the TGI in the assay with CCRF-CEM leukemia, in the assay on SN12C renal and with BT-549 breast was > 50 µM in each case.
`COC(=O)c1cc(C)ccc1C1CN=NC12Cc1c(C)cc(C)cc1C2=O` (centres undefined): the TGI was > 100 µM in the assay on U251 CNS; > 100 µM in the assay with SK-MEL-28 melanoma; 98.9 µM with SF-268 CNS; 60.6 µM in the assay with MALME-3M melanoma; 31.6 µM in the assay with SK-MEL-5 melanoma; 29.3 µM in the assay on HL-60(TB) leukemia. Besides, the results for the TGI with CCRF-CEM leukemia, with SN12C renal and in the assay on BT-549 breast were 86.5 µM, > 100 µM and 69.3 µM, respectively.
With `CCCCCCCCCCCCCCCCCCNC(=O)OCC(CNS(=O)(=O)CCC[n+]1cccc2ccccc21)COC` (centres undefined), the TGI is > 35.1 µM in the assay on SK-MEL-28 melanoma; > 20.4 µM in the assay on SF-268 CNS; > 100 µM with RPMI-8226 leukemia; 18.7 µM with MALME-3M melanoma; 7.03 µM in the assay on SK-MEL-5 melanoma; > 100 µM in the assay with HL-60(TB) leukemia. Also, the TGI with SN12C renal came to 20.8 µM; in the assay on BT-549 breast it was 5.41 µM.
As for `Cc1c(C#N)c(=N)oc2ccccc12`, the TGI with U251 CNS, in the assay with SK-MEL-28 melanoma, with SF-268 CNS, in the assay on RPMI-8226 leukemia, in the assay with MALME-3M melanoma and in the assay with SK-MEL-5 melanoma was > 100 µM throughout. The TGI in the assay with HL-60(TB) leukemia, in the assay on SN12C renal and in the assay on BT-549 breast was > 100 µM each time.
As for `C[PH+](c1nc2ccccc2nc1[PH+](C)C(C)(C)C)C(C)(C)C.C[PH+](c1nc2ccccc2nc1[PH+](C)C(C)(C)C)C(C)(C)C.[Au+].[Cl-]` (centres undefined), the GI50 in the assay on SK-MEL-28 melanoma is 53.8 nM; in the assay with SF-268 CNS, 38.4 nM; with RPMI-8226 leukemia, 35.7 nM; in the assay with MALME-3M melanoma, 26.3 nM; in the assay with SK-MEL-5 melanoma, 32.9 nM; in the assay with HL-60(TB) leukemia it was 70 nM. The figures for the GI50 in the assay with CCRF-CEM leukemia and in the assay on BT-549 breast were 60.3 nM and 32.4 nM, respectively. Besides, the TGI was 1.5 µM in the assay on SK-MEL-28 melanoma; 1.35 µM in the assay on SF-268 CNS; 0.245 µM in the assay with RPMI-8226 leukemia; 0.0811 µM in the assay with MALME-3M melanoma; 0.105 µM in the assay on SK-MEL-5 melanoma; 1.02 µM in the assay on HL-60(TB) leukemia. For the same compound, the TGI stood at 1.5 µM in the assay with CCRF-CEM leukemia and 0.0961 µM in the assay with BT-549 breast.
Regarding `NC1c2c(Cl)sc(Cl)c2C(=O)C1O` (centres undefined), the TGI is 60 µM in the assay with U251 CNS; > 100 µM with SF-268 CNS; 82.4 µM with MALME-3M melanoma; 86.6 µM in the assay on SK-MEL-5 melanoma; 30.1 µM with HL-60(TB) leukemia; 37.7 µM with CCRF-CEM leukemia. Also, the TGI came out at 29.2 µM in the assay with SN12C renal and 47.6 µM in the assay on BT-549 breast.

(Values after PubChem BioAssay (NCI).)
